The conditions of this data set: for physical state of the salt: room temperature. How it is done:
The term “liquid” means that the salt is in a state of matter where the particles are loose and can freely form a distinct surface at the boundaries of the bulk material. The liquid's shape is determined by the container it fills. The liquid can be of low or high viscosity, e.g. in the form of an oil or thick oil.
The liquid salt of the present invention can be prepared by mixing rasagiline and the acid and recovering the salt. […] Efficient mixing can be mediated by the use of a mixer mill. Alternatively, the rasagiline and the acid can be mixed in the presence of a solvent. In this case, either the rasagiline or the acid or the rasagiline and the acid can be suspended or dissolved in the same or different solvents before mixing. For example, first the rasagiline can be dissolved in the solvent and then the acid is added to this solution. Suitable solvents are, e.g., water, tetrahydrofurane, isopropyl alcohol, acetone, diisopropyl ether, and mixtures thereof. Preferred solvents are diisopropyl ether and acetone.
In the following table 1, the reference examples and examples of the present invention are summarized: […]

Like-named read-outs stand apart in the source and are kept apart here.

Turning to `C#CCN[C@@H]1CCc2ccccc21` [Ex. 3, Rasagiline Propanoate], where the note is “0° C.”, the “physical state of the salt at 0° C.” value is reported as “solid”. Moreover, under “listed as Rasagiline propionate”, the “physical state of the salt” value is “oil”.
Regarding `C#CCNC1CCc2ccccc21.O=C1NS(=O)(=O)c2ccccc21` (stereo not shown) [Ref. Ex. 5, Rasagiline Saccharinate], the “physical state of the salt” value is on record as “solid”.
On the same count and under the same terms, then `C#CCN[C@@H]1CCc2ccccc21` [Ref. Ex. 7, Rasagiline Lauryl Sulphate], with “solids”.
`C#CCN[C@@H]1CCc2ccccc21` [Ref. Ex. 8, Rasagiline 4-dodecylbenzenesulfonate]: the “physical state of the salt” value (listed as rasagiline dodecyl benzene sulphonate) is on record as “solids”.
On to `C#CCN[C@@H]1CCc2ccccc21.CC(=O)O` [Ref. Ex. 9, Rasagiline Acetate], for which the “physical state of the salt” value is listed as “crystalline solid”.
The same measure, in the same setting: in the case of Rasagiline Docusate [Ref. Ex. 6] it was “solid wax”.

Source of the values: patent US8946482B2, “Salts of rasagiline and pharmaceutical preparations thereof” (Ratiopharm GmbH, priority 2009, dated 2015).
